Measurements as given in patent US10925858B2, “S-nitrosoglutathione (GSNO) and GSNO reductase inhibitors for use in therapy” (MUSC FOUNDATION FOR RESEARCH DEVELOPMENT, priority 2017, dated 2021).

What was measured:
BBB leakage [1] = test: BBB disruption by Evans blue extravasation in CCI rat model of TBI; assay type: in vivo, Sprague Dawley rats; settings: 24 hr after TBI; GSNO 0.05 mg/kg i.v. or FeTPPS 3 mg/kg i.v. right after impact
Description: All animals used in this study received humane care in compliance with the Medical University of South Carolina's (MUSC) guidance and the National Research Council's criteria for humane care. Animal procedures were approved by the institutional animal care and use committee of MUSC (AR #2703). For generation of CCI model of TBI, young adult male (˜3-4 months old) Sprague Dawley rats weighing between 260-300 g were randomly divided into four groups: 1) TBI animals treated with vehicle (TBI; n=13), 2) TBI with GSNO (0.05 mg/kg body weight/i.v.) treatment (TBI+GSNO; n=13), 3) TBI with FeTPPS (3 mg/kg body weight, i.v.) treatment (TBI+FeTPPS; n=13), 4) sham-operated treated with vehicle (Sham; n=13). The group size was determined by power analysis based on our previous data (Khan et al., 2016b; Khan et al., 2009). Ketamine (90 mg/kg body weight) and xylazine (10 mg/kg body weight) as surgical anesthesia were administered intraperitoneally. Analgesic buprenorphine was administered pre-emptively to alleviate pain following surgery. […]
BBB leakage was assessed as previously described from our laboratory (Khan et al., 2016b; Khan et al., 2009). […] The brain tissues were homogenized in 750 μl of N, N-dimethylformamide (DMF) and centrifuged at 10,000×g for 25 minutes, and EB content in supernatant was fluorimetrically analyzed (λex 620 nm, λem 680 nm).

BBB leakage [2] = test: Evan's blue extravasation assay (BBB leakage) in EAE mice; assay type: in vivo, C57BL/6J mice; settings: GSNO 1 mg/kg/day or FeTPPS 30 mg/kg/day i.p.
Description: (§1) EAE was induced as described previously (Nath et al., 2009). Animal procedures were approved by the institutional animal care and use committee of MUSC (AR #1644). Briefly, female C57BL/6J mice of 8-12 weeks of age weighing 18-22 g (The Jackson Laboratory, Bar Harbor, Me., USA) were randomly divided into four groups: 1) EAE animals treated with vehicle (EAE; n=8), 2) EAE with GSNO (1 mg/kg body weight per day; i.p.) treatment (EAE+GSNO; n=12), 3) EAE with FeTPPS (30 mg/kg body weight per day; i.p.) treatment (EAE+FeTPPS; n=8), 4) control with vehicle (Ctrl; n=8). The group size was determined by power analysis based on our previous data (Nadi et al., 2009). Then, the mice were immunized subcutaneously in the flank regions with MOG35-55 peptide (MOG; 200 ug; Peptide International) emulsified (1:1) in 100 ul complete Freund's adjuvant (CFA) CHI day 0 and day 7. […] Clinical signs of EAE were scored in animal facility in a blinded fashion to experimenter between 2 and 4 pm daily by examiners blinded to experimental treatments using the following scale: 0=no clinical signs of disease; 1=limp tail or waddling gait with tail tonicity; 2=waddling gait with limp tail (ataxia); 2.5=ataxia with partial limb paralysis; 3=full paralysis of one limb; 3.5=full paralysis of one limb with partial paralysis of second limb; 4=full paralysis of two limbs; 4.5=moribund stage; 5=death. […]

[3] = test system: intracellular Ca^2+ ([Ca^2+]i) influx; test: Assay for intracellular Ca2+ influx in thrombin treated hBMVECs; assay type: cell-based, human; settings: thrombin 0.1 unit/ml; L-NIO or FeTPPS 10 μM; GSNO or SIN-1 various concentrations
Description: Cell culture: Primary human brain microvascular endothelial cells (hBMVECs) were purchased from Angio-Proteomie (Cat #: cAP-0002, Atlanta, Ga.). The cells were cultured in cell culture flasks or plates precoated with Quick Coating Solution (Angio-Proteomie; Cat #: cAP-01) and maintained in Endothelial Growth Medium (Angio-Proteomie; Cat #: cAP-02) at 37° C. under 5% CO2/95% air. When the cells were almost confluent, the medium was replaced with endothelial basal medium (Angio-Proteomie; Cat #: cAP-03) containing 0.5% fetal bovine serum (FBS; Life Technologies, Grand Island, N.Y.) about 8-12 hours before the experiment. No institutional approval was required for this study. The study was not pre-registered. Intracellular Ca^2+ concentration ([Ca^2+]i) was measured with Fluo-4 Direct Calcium Assay Kit (Thermo Fisher Scientific, Cat #: F10471, Grand Island, N.Y.). Briefly, culture medium in the 96-well plate was replaced with a Ca^2+ sensitive dye Fluo-4 in an endothelial basal medium. After 30 min incubation, the dye was removed and cells were incubated with the original medium with or without the drugs at 37° C. for 15 min. Following thrombin treatment, time course changes of fluorescent intensity were quantified using a CLARIOstar multi-well fluorometer (BMG Labtech, Cary, N.C.).

EAE mice = test: EAE (MOG35-55) clinical disease, GSNO vs FeTPPS; assay type: in vivo, C57BL/6J mice; settings: GSNO 1 mg/kg/i.p./day or FeTPPS 30 mg/kg/i.p./day from disease onset (day 13)
Description: as §1

lymphocytes in blood = test: Total lymphocyte count in blood of normal mice (lymphopenic effect); assay type: in vivo, C57BL/6 mice; settings: normal mice without EAE, 1 mg/kg/day for 19 days
Description: The bloods collected in EDTA blood collection tubes (BD Biosciences) were analyzed by an automated hematology analyzer for counting total lymphocytes. For counting of each subset of lymphocytes, 50 μl of blood was mixed with staining buffer (20 μl) containing fluorescence labelled antibodies and red-blood-cells were lysed with FACS lysing solution (BD Biosciences) prior to fluorescence flow-cytometric analysis. For staining of CD3+, CD4+, and CD8+ cells, allophycocvanin (APC)-labeled anti-mouse CD3 (eBioscience clone 17A2), Fluorescein isothiocyanate (FITC)-labeled anti-mouse CD4 (eBioscience clone RM4-5), APC-labeled anti-mouse CD8 (eBioscience clone 53-6.7) and appropriate isotype matched controls.

numbers of total lymphocytes, CD3+ T cells, CD4+ T cells and CD8+ cells in blood (lymphocytes in blood)	Structure (SMILES)	TBI-induced increase in Evan's blue extravasation (BBB leakage [1])	extravasation of Evan's blue dye into the CNS (BBB leakage [2])	thrombin-induced intracellular Ca2+ influx [3]	efficacy against clinical disease of EAE (EAE mice)
–	Cl.O=S(=O)([O-])c1ccc(-c2c3nc(c(-c4ccc(S(=O)(=O)O)cc4)c4ccc([nH]4)c(-c4ccc(S(=O)(=O)O)cc4)c4nc(c(-c5ccc(S(=O)(=O)O)cc5)c5ccc2[nH]5)C=C4)C=C3)cc1.[Fe] [FeTPPS, 5,10,15,20-Tetrakis(4-sulfonatophenyl)porphyrinato Iron (III), Cl, reference compound]	reduced	significantly decreased	had not effect	significant efficacy but to a lower degree than GSNO treatment
no obvious effect	N[C@@H](CCC(=O)N[C@@H](CSN=O)C(=O)NCC(=O)O)C(=O)O [GSNO, S-nitrosoglutathione]	reduced	significantly decreased	inhibited	great efficacy
did not affect	Cc1cc(C(N)=O)ccc1-n1c(CCC(=O)O)ccc1-c1ccc(-n2ccnc2)cc1 [N6022, reference compound]	–	–	–	–
